Tests used:
Experiment in all cases: cells
Type in all cases: cell-based, human
DU-145 = settings: read-out: GI50 DU-145 prostate
NCI-H460 = settings: read-out: GI50 NCI-H460 lung
HCT-15 = settings: read-out: GI50 HCT-15 colorectal
Hep3b = settings: read-out: GI50 Hep3b liver
HT29 = settings: read-out: GI50 HT29 colorectal
A549 = settings: read-out: GI50 A549 lung (+p53)
MCF7 = settings: read-out: GI50 MCF7 breast
SKOV3 = settings: read-out: GI50 SKOV3 ovary
H1299 = settings: read-out: GI50 H1299 lung (−p53)
SF-268 = settings: read-out: GI50 SF-268 CNS

| SMILES | GI50 (DU-145) [µM] | GI50 (NCI-H460) [µM] | GI50 (HCT-15) [µM] | GI50 (Hep3b) [µM] | GI50 (HT29) [µM] | GI50 (A549) [µM] | GI50 (MCF7) [µM] | GI50 (SKOV3) [µM] | GI50 (H1299) [µM] | GI50 (SF-268) [µM] |
| --- | --- | --- | --- | --- | --- | --- | --- | --- | --- | --- |
| COC1C(O)C(CO)OC(N(CCCCc2ccc(N(CCCl)CCCl)cc2)OC)C1O (stereo not drawn) [Compound 33] | 5.1 ± 0.1 | 7.8 ± 0.08 | 1.1 ± 0.1 | 4.2 ± 0.2 | 2.7 ± 0.2 | 3.6 ± 0.2 | 8.3 ± 0.1 | 2.4 ± 0.1 | 1.7 ± 0.1 | 2.8 ± 0.1 |
| C=CCOC(=O)NCC1OC(N(CCCCc2ccc(N(CCCl)CCCl)cc2)OC)C(O)C(O)C1O (stereo not drawn) [Compound 35] | 6.2 ± 0.4 | 11 ± 0.1 | 2.1 ± 0.1 | 4.6 ± 0.2 | 2.8 ± 0.2 | 4.5 ± 0.3 | 7.4 ± 0.1 | 2.9 ± 0.1 | 2.1 ± 0.1 | 3.1 ± 0.1 |
| CON(CCCCc1ccc(N(CCCl)CCCl)cc1)C1OC(CCl)C(O)C(O)C1O (stereo not drawn) [Compound 36] | 3.7 ± 0.1 | 5.8 ± 0.6 | 1.2 ± 0.1 | 3.2 ± 0.2 | 2.1 ± 0.1 | 3 ± 0.1 | 4.9 ± 0.1 | 2.1 ± 0.1 | 1.3 ± 0.1 | 2.1 ± 0.1 |
| CON(CCCCc1ccc(N(CCCl)CCCl)cc1)C1OC(C(=O)O)C(O)C(O)C1O (stereo not drawn) [Compound 38] | 3.9 ± 0.1 | 9.1 ± 0.9 | 1.03 ± 0.05 | 4.9 ± 0.3 | 3.2 ± 0.3 | 5.5 ± 0.3 | 6 ± 0.1 | 3.1 ± 0.1 | 0.99 ± 0.03 | 1.6 ± 0.1 |
| CON(CCCCc1ccc(N(CCCl)CCCl)cc1)C1O[C@H](CO)[C@@H](O[C@@H]2O[C@H](CO)[C@H](O)[C@H](O)[C@H]2O)[C@H](O)[C@@H]1O (stereo partly drawn) [Compound 46] | 43 ± 3 | 57.7 ± 0.5 | 31 ± 1 | 38 ± 2 | 34 ± 3 | 56 ± 1 | 26 ± 2 | 35 ± 1 | 24 ± 1 | 19.1 ± 0.7 |
| CON(CCCCc1ccc(N(CCCl)CCCl)cc1)[C@@H]1O[C@H](CO[C@H]2O[C@H](CO)[C@H](O)[C@H](O)[C@H]2O)[C@@H](O)[C@H](O)[C@H]1O [Compound 47] | 36 ± 1 | 45.5 ± 0.4 | 20 ± 1 | 29 ± 3 | 27.4 ± 0.3 | 40 ± 2 | 21 ± 2 | 27 ± 1 | 17.8 ± 0.06 | 16.3 ± 0.5 |
| CON(CCCCc1ccc(N(CCCl)CCCl)cc1)[C@@H]1O[C@H](CO)[C@@H](O)[C@H](O[C@H](C)C(=O)O)[C@H]1NC(C)=O [Compound 48] | 8.9 ± 0.3 | 13.1 ± 0.3 | 3.1 ± 0.2 | 8 ± 0.4 | 6.3 ± 0.3 | 8.6 ± 0.6 | 4.5 ± 0.3 | 7 ± 0.2 | 2.4 ± 0.2 | 4.1 ± 0.1 |
| CO[C@@H]1[C@@H](OC(N)=O)[C@@H](O)C(N(CCCCc2ccc(N(CCCl)CCCl)cc2)OC)OC1(C)C (stereo partly drawn) [Compound 49] | 6.7 ± 0.5 | 9.7 ± 0.5 | 1.7 ± 0.2 | 6 ± 1 | 6 ± 0.1 | 5.8 ± 0.8 | 4.8 ± 0.9 | 5.4 ± 0.8 | 1.3 ± 0.2 | 5.1 ± 0.8 |
| CON(CCCCc1ccc(N(CCCl)CCCl)cc1)C1CC(O)C(O)C(C)O1 (stereo not drawn) [Compound 50] | 5.5 ± 0.1 | 5.7 ± 0.6 | 2.5 ± 0.2 | 3.8 ± 0.2 | 3.2 ± 0.2 | 3.1 ± 0.2 | 3.1 ± 0.2 | 3.2 ± 0.1 | 4.8 ± 0.5 | 2.3 ± 0.8 |
| CON(CCCCc1ccc(N(CCCl)CCCl)cc1)C1OC(C)C(OC(C)=O)C(OC(C)=O)C1OC(C)=O (stereo not drawn) [Compound 52] | 4.5 ± 0.1 | 7.8 ± 0.8 | 3.7 ± 0.2 | 4.6 ± 0.2 | 4.3 ± 0.2 | 3.5 ± 0.1 | 3.2 ± 0.6 | 3.9 ± 0.1 | 5 ± 0.4 | 3 ± 0.1 |
| CON(CCCCc1ccc(N(CCCl)CCCl)cc1)C1OC[C@H](O)[C@H](O)[C@@H]1O (stereo partly drawn) [Compound 54, N-Methoxy-4-(4-N′,N′-bis(2-chloroethyl)amino)phenylbutylamino-L-riboside] | 3.7 ± 0.1 | 5.7 ± 0.6 | 2.1 ± 0.1 | 2.4 ± 0.1 | 2.2 ± 0.1 | 2.4 ± 0.1 | 0.97 ± 0.02 | 2 ± 0.1 | 3.3 ± 0.2 | 2.1 ± 0.2 |
| CON(CCCCc1ccc(N(CCCl)CCCl)cc1)C1OC(COCc2ccccc2)C(OCc2ccccc2)C1OCc1ccccc1 (stereo not drawn) [Compound 57] | > 100 | > 100 | > 100 | > 100 | > 100 | > 100 | > 100 | > 100 | 82 ± 7 | > 100 |
| CON(CCCCc1ccc(N(CCCl)CCCl)cc1)[C@H]1O[C@H](CO)[C@H](O)[C@H](O)[C@@H]1O [Compound 58] | 3.3 ± 0.1 | 5 ± 0.6 | 2.2 ± 0.1 | 2.4 ± 0.1 | 1.8 ± 0.4 | 2.6 ± 0.1 | 1.5 ± 0.3 | 2 ± 0.1 | 3 ± 0.3 | 1.7 ± 0.1 |
| CON(CCCCc1ccc(N(CCCl)CCCl)cc1)[C@@H]1O[C@@H](CO)[C@@H](O)[C@@H](O)[C@H]1O [Compound 59] | 3.4 ± 0.1 | 4.3 ± 0.4 | 2 ± 0.1 | 2.6 ± 0.1 | 1.9 ± 0.1 | 2.7 ± 0.2 | 1.8 ± 0.3 | 2 ± 0.1 | 2.4 ± 0.2 | 1.7 ± 0.1 |
| CON(CCCCc1ccc(N(CCCl)CCCl)cc1)C1OCC(O)C1O (stereo not drawn) [Compound 61] | 2.1 ± 0.1 | 1.9 ± 0.5 | 0.82 ± 0.05 | 1.4 ± 0.1 | 1.2 ± 0.1 | 2 ± 0.2 | 0.87 ± 0.09 | 2.1 ± 0.1 | 0.72 ± 0.03 | 1.3 ± 0.1 |
| CON(CCCCc1ccc(N(CCCl)CCCl)cc1)C1OCC(O)C(O)C1O (stereo not drawn) [Compound 62] | 2.3 ± 0.1 | 4.5 ± 0.4 | 0.9 ± 0.05 | 1.5 ± 0.1 | 1.6 ± 0.1 | 2.3 ± 0.1 | 0.91 ± 0.09 | 2.2 ± 0.1 | 0.83 ± 0.04 | 1.4 ± 0.1 |
| CON(CCCCc1ccc(N(CCCl)CCCl)cc1)C1OCC(O)C(O)C1O (stereo not drawn) [Compound 63] | 2.2 ± 0.1 | 2.9 ± 0.3 | 0.83 ± 0.04 | 1.6 ± 0.1 | 1.5 ± 0.1 | 2.2 ± 0.1 | 1.2 ± 0.2 | 2.4 ± 0.1 | 0.93 ± 0.03 | 1.5 ± 0.1 |
| C[C@H]1OC(N(O)CCCCc2ccc(N(CCCl)CCCl)cc2)[C@H](O)[C@@H](O)[C@H]1O (stereo partly drawn) [Compound 66, N-Hydroxy-4-(4-N′,N′-bis(2-chloroethyl)amino)phenylbutylamino-D-fucoside] | 5.7 ± 0.4 | 4.9 ± 0.2 | 3.8 ± 0.3 | 3.6 ± 0.3 | 4.6 ± 0.1 | 6.4 ± 0.3 | 2.7 ± 0.1 | 4.7 ± 0.1 | 2.6 ± 0.1 | 1.4 ± 0.1 |

From patent US8552176B2 (priority 2010, dated 2013)
